From patent US20160237450A1, “METHOD FOR ENHANCING DROUGHT TOLERANCE IN PLANTS” (Plant Response Biotech S.L., priority 2015, published 2016) come the findings set out here.

The test has as its system kohlrabi plants. The experiment in a line: Yield production without drought stress, kohlrabi. The class given is in vivo. As to conditions: 1 g/l spray every 4 weeks for 3 months, no drought stress. On the procedure: In order to determine the plant yield productivity under normal conditions, ‘Sabrina’, ‘Candonga’ and ‘Fortuna’ strawberry varieties, leek, lettuce, “Iceberg” variety, broccoli “Parthenon” variety, celery or kohlrabi plants, were grown under standard production conditions and 120 plants of each variety per treatment (where the treatment was a control comprising standard watering or 1 g/L of TMAO di-hydrate spray every four weeks) were analyzed. Plants were located in four (4) different positions for each group of 30 plants from the same treatment. Fruits, leaves or roots were harvested from individual plants and total weight was determined for each plant.
Root or leaves yield was determined in the plants treated with 1 g/l of TMAO di-hydrate or water as described above in order to evaluate the trade-off costs of the treatment with no drought stress.

Regarding `C[N+](C)(C)[O-].O.O` [TMAO di-hydrate, trimethylamine N-oxide di-hydrate], the “Yield production, % Control” value is 103%.
